Results: ChEMBL document CHEMBL2331518, “Rapid microwave-enhanced synthesis of C5-alkynyl pyranonucleosides as novel cytotoxic antitumor agents” (Bioorg Med Chem Lett, 2013)
Calls of active or inactive are those of the source. The calls are words filed in the database; no cut-off is given here.

These molecules were tested on Human immunodeficiency virus 2 (assay: Antiviral activity against HIV2 ROD infected in human CEM cells assessed as reduction of virus-induced cytopathicity after 4 to 5 days). Conditions: ISOLATE ROD, CCRF-CEM.
Format: functional, organism-based
In the case of `C[n+]1cccc(C#Cc2cn([C@@H]3O[C@H](CO)[C@@H](O)[C@H](O)[C@H]3O)c(=O)[nH]c2=O)c1`, the Activity is reported as “inactive”. For `CCCc1cc2cn([C@@H]3O[C@H](CO)[C@@H](O)[C@H](O)[C@H]3O)c(=O)nc2o1`, the Activity was “inactive”.

These molecules were tested on Human immunodeficiency virus 1 (assay: Antiviral activity against HIV1 3B infected in human CEM cells assessed as reduction of virus-induced cytopathicity after 4 to 5 days). Conditions: CCRF-CEM.
Format: functional, organism-based
In the case of `C[n+]1cccc(C#Cc2cn([C@@H]3O[C@H](CO)[C@@H](O)[C@H](O)[C@H]3O)c(=O)[nH]c2=O)c1`, the Activity is reported as “inactive”. With `CCCc1cc2cn([C@@H]3O[C@H](CO)[C@@H](O)[C@H](O)[C@H]3O)c(=O)nc2o1` the Activity was “inactive”.

What follows are molecules tested on Punta Toro virus (assay: Antiviral activity against Punta Toro virus by cell based assay). Conditions: not given.
Format: functional, organism-based
For `C[n+]1cccc(C#Cc2cn([C@@H]3O[C@H](CO)[C@@H](O)[C@H](O)[C@H]3O)c(=O)[nH]c2=O)c1`, the Activity was “inactive”. In the case of `CCCc1cc2cn([C@@H]3O[C@H](CO)[C@@H](O)[C@H](O)[C@H]3O)c(=O)nc2o1`, the Activity is reported as “inactive”.

Each molecule was assayed on Mammalian orthoreovirus 1 (assay: Antiviral activity against Reovirus-1 by cell based assay). Conditions: not given.
Format: functional, organism-based
In the case of `C[n+]1cccc(C#Cc2cn([C@@H]3O[C@H](CO)[C@@H](O)[C@H](O)[C@H]3O)c(=O)[nH]c2=O)c1`, the Activity is reported as “inactive”. `CCCc1cc2cn([C@@H]3O[C@H](CO)[C@@H](O)[C@H](O)[C@H]3O)c(=O)nc2o1` was tested, and the Activity was “inactive”.

The molecules below were run on Influenza B virus (assay: Antiviral activity against Influenza B virus by cell based assay). Conditions: not given.
Format: functional, organism-based
For `C[n+]1cccc(C#Cc2cn([C@@H]3O[C@H](CO)[C@@H](O)[C@H](O)[C@H]3O)c(=O)[nH]c2=O)c1`, the Activity was “inactive”. `CCCc1cc2cn([C@@H]3O[C@H](CO)[C@@H](O)[C@H](O)[C@H]3O)c(=O)nc2o1` was tested, and the Activity was “inactive”.

Each molecule was assayed on Influenza A virus (assay: Antiviral activity against Influenza A virus H3N2 by cell based assay). Conditions: not given.
Format: functional, organism-based
For `C[n+]1cccc(C#Cc2cn([C@@H]3O[C@H](CO)[C@@H](O)[C@H](O)[C@H]3O)c(=O)[nH]c2=O)c1`, the Activity was “inactive”. In the case of `CCCc1cc2cn([C@@H]3O[C@H](CO)[C@@H](O)[C@H](O)[C@H]3O)c(=O)nc2o1`, the Activity is reported as “inactive”.

Each molecule was assayed on Sindbis virus (assay: Antiviral activity against Sindbis virus by cell based assay). Conditions: not given.
Format: functional, organism-based
In the case of `C[n+]1cccc(C#Cc2cn([C@@H]3O[C@H](CO)[C@@H](O)[C@H](O)[C@H]3O)c(=O)[nH]c2=O)c1`, the Activity is reported as “inactive”. For `CCCc1cc2cn([C@@H]3O[C@H](CO)[C@@H](O)[C@H](O)[C@H]3O)c(=O)nc2o1`, the Activity was “inactive”.

What follows are molecules tested on Influenza A virus (assay: Antiviral activity against Influenza A virus H1N1 by cell based assay). Conditions: not given.
Format: functional, organism-based
With `C[n+]1cccc(C#Cc2cn([C@@H]3O[C@H](CO)[C@@H](O)[C@H](O)[C@H]3O)c(=O)[nH]c2=O)c1` the Activity was “inactive”. `CCCc1cc2cn([C@@H]3O[C@H](CO)[C@@H](O)[C@H](O)[C@H]3O)c(=O)nc2o1` was tested, and the Activity was “inactive”.

These molecules were tested on Human respirovirus 3 (assay: Antiviral activity against Parainfluenza-3 virus by cell based assay). Conditions: not given.
Format: functional, organism-based
For `C[n+]1cccc(C#Cc2cn([C@@H]3O[C@H](CO)[C@@H](O)[C@H](O)[C@H]3O)c(=O)[nH]c2=O)c1`, the Activity was “inactive”. In the case of `CCCc1cc2cn([C@@H]3O[C@H](CO)[C@@H](O)[C@H](O)[C@H]3O)c(=O)nc2o1`, the Activity is reported as “inactive”.

These molecules were tested on Coxsackievirus B4 (assay: Antiviral activity against Coxsackie virus B4 by cell based assay). Conditions: not given.
Format: functional, organism-based
With `C[n+]1cccc(C#Cc2cn([C@@H]3O[C@H](CO)[C@@H](O)[C@H](O)[C@H]3O)c(=O)[nH]c2=O)c1` the Activity was “inactive”. `CCCc1cc2cn([C@@H]3O[C@H](CO)[C@@H](O)[C@H](O)[C@H]3O)c(=O)nc2o1` was tested, and the Activity was “inactive”.

Each molecule was assayed on Vesicular stomatitis virus (assay: Antiviral activity against Vesicular stomatitis virus by cell based assay). Conditions: not given.
Format: functional, organism-based
In the case of `C[n+]1cccc(C#Cc2cn([C@@H]3O[C@H](CO)[C@@H](O)[C@H](O)[C@H]3O)c(=O)[nH]c2=O)c1`, the Activity is reported as “inactive”. `CCCc1cc2cn([C@@H]3O[C@H](CO)[C@@H](O)[C@H](O)[C@H]3O)c(=O)nc2o1` was tested, and the Activity was “inactive”.

These molecules were tested on Respiratory syncytial virus (assay: Antiviral activity against Respiratory syncytial virus Long by cell based assay). Conditions: not given.
Format: functional, organism-based
`C[n+]1cccc(C#Cc2cn([C@@H]3O[C@H](CO)[C@@H](O)[C@H](O)[C@H]3O)c(=O)[nH]c2=O)c1` was tested, and the Activity was “inactive”. For `CCCc1cc2cn([C@@H]3O[C@H](CO)[C@@H](O)[C@H](O)[C@H]3O)c(=O)nc2o1`, the Activity was “inactive”.

These molecules were tested on Vaccinia virus (assay: Antiviral activity against Vaccinia virus Lederle by cell based assay). Conditions: Orthopoxvirus vaccinia.
Format: functional, organism-based
For `C[n+]1cccc(C#Cc2cn([C@@H]3O[C@H](CO)[C@@H](O)[C@H](O)[C@H]3O)c(=O)[nH]c2=O)c1`, the Activity was “inactive”. In the case of `CCCc1cc2cn([C@@H]3O[C@H](CO)[C@@H](O)[C@H](O)[C@H]3O)c(=O)nc2o1`, the Activity is reported as “inactive”.

The molecules below were run on Human alphaherpesvirus 2 (assay: Antiviral activity against HSV-2 G by cell based assay). Conditions: strain G.
Format: functional, organism-based
With `C[n+]1cccc(C#Cc2cn([C@@H]3O[C@H](CO)[C@@H](O)[C@H](O)[C@H]3O)c(=O)[nH]c2=O)c1` the Activity was “inactive”. For `CCCc1cc2cn([C@@H]3O[C@H](CO)[C@@H](O)[C@H](O)[C@H]3O)c(=O)nc2o1`, the Activity was “inactive”.

These molecules were tested on Human alphaherpesvirus 1 (assay: Antiviral activity against kinase-deficient acyclovir-resistant HSV-1 KOS by cell based assay). Conditions: not given.
Format: functional, organism-based
With `C[n+]1cccc(C#Cc2cn([C@@H]3O[C@H](CO)[C@@H](O)[C@H](O)[C@H]3O)c(=O)[nH]c2=O)c1` the Activity was “inactive”. `CCCc1cc2cn([C@@H]3O[C@H](CO)[C@@H](O)[C@H](O)[C@H]3O)c(=O)nc2o1` was tested, and the Activity was “inactive”.

Each molecule was assayed on Human alphaherpesvirus 2 (assay: Antiviral activity against HSV-2 Lyons by cell based assay). Conditions: not given.
Format: functional, organism-based
In the case of `C[n+]1cccc(C#Cc2cn([C@@H]3O[C@H](CO)[C@@H](O)[C@H](O)[C@H]3O)c(=O)[nH]c2=O)c1`, the Activity is reported as “inactive”. For `CCCc1cc2cn([C@@H]3O[C@H](CO)[C@@H](O)[C@H](O)[C@H]3O)c(=O)nc2o1`, the Activity was “inactive”.

Each molecule was assayed on Human alphaherpesvirus 1 (assay: Antiviral activity against HSV-1 KOS by cell based assay). Conditions: not given.
Format: functional, organism-based
In the case of `C[n+]1cccc(C#Cc2cn([C@@H]3O[C@H](CO)[C@@H](O)[C@H](O)[C@H]3O)c(=O)[nH]c2=O)c1`, the Activity is reported as “inactive”. `CCCc1cc2cn([C@@H]3O[C@H](CO)[C@@H](O)[C@H](O)[C@H]3O)c(=O)nc2o1` was tested, and the Activity was “inactive”.

The molecules below were run on HeLa (assay: Cytotoxicity against human HeLa cells after 72 hrs). Conditions: not given.
Format: functional, cell-based
`Nc1nc(=O)n([C@@H]2O[C@H](CO)[C@@H](O)[C@H](O)[C@H]2O)cc1C#Cc1ccccc1` was tested, and the IC50 was 201 µM. Work on `C#Cc1cn([C@@H]2O[C@H](CO)[C@@H](O)[C@H](O)[C@H]2O)c(=O)nc1N` yielded an IC50 of no less than 250 µM. In the case of `CC(=O)OC[C@H]1O[C@@H](n2cc(C#Cc3ccc[n+](C)c3)c(=O)[nH]c2=O)[C@H](OC(C)=O)[C@@H](OC(C)=O)[C@@H]1OC(C)=O`, the IC50 is reported as greater than 250 µM. With `CCCCCC#Cc1cn([C@@H]2O[C@H](CO)[C@@H](O)[C@H](O)[C@H]2O)c(=O)[nH]c1=O` the IC50 was 29 µM. `C[n+]1cccc(C#Cc2cn([C@@H]3O[C@H](CO)[C@@H](O)[C@H](O)[C@H]3O)c(=O)[nH]c2=O)c1` was tested, and the IC50 was greater than 250 µM. For `CCCc1cc2cn([C@@H]3O[C@H](CO)[C@@H](O)[C@H](O)[C@H]3O)c(=O)nc2o1`, the IC50 was 125 µM.

Each molecule was assayed on L1210 (assay: Cytotoxicity against mouse L1210 cells after 48 hrs). Conditions: L1210, 48 h.
Format: functional, cell-based
Molecule `Nc1nc(=O)n([C@@H]2O[C@H](CO)[C@@H](O)[C@H](O)[C@H]2O)cc1C#Cc1ccccc1` has an IC50 of no less than 250 µM. With `C#Cc1cn([C@@H]2O[C@H](CO)[C@@H](O)[C@H](O)[C@H]2O)c(=O)nc1N` the IC50 was no less than 250 µM. `CC(=O)OC[C@H]1O[C@@H](n2cc(C#Cc3ccc[n+](C)c3)c(=O)[nH]c2=O)[C@H](OC(C)=O)[C@@H](OC(C)=O)[C@@H]1OC(C)=O` gave an IC50 greater than 250 µM. With `CCCCCC#Cc1cn([C@@H]2O[C@H](CO)[C@@H](O)[C@H](O)[C@H]2O)c(=O)[nH]c1=O` the IC50 was 22 µM. In the case of `C[n+]1cccc(C#Cc2cn([C@@H]3O[C@H](CO)[C@@H](O)[C@H](O)[C@H]3O)c(=O)[nH]c2=O)c1`, the IC50 is reported as greater than 250 µM. Molecule `CCCc1cc2cn([C@@H]3O[C@H](CO)[C@@H](O)[C@H](O)[C@H]3O)c(=O)nc2o1` has an IC50 of 132 µM.

Each molecule was assayed on CCRF-CEM (assay: Cytotoxicity against human CEM cells after 72 hrs). Conditions: not given.
Format: functional, cell-based
`Nc1nc(=O)n([C@@H]2O[C@H](CO)[C@@H](O)[C@H](O)[C@H]2O)cc1C#Cc1ccccc1` was tested, and the IC50 was greater than 250 µM. `C#Cc1cn([C@@H]2O[C@H](CO)[C@@H](O)[C@H](O)[C@H]2O)c(=O)nc1N` gave an IC50 greater than 250 µM. `CC(=O)OC[C@H]1O[C@@H](n2cc(C#Cc3ccc[n+](C)c3)c(=O)[nH]c2=O)[C@H](OC(C)=O)[C@@H](OC(C)=O)[C@@H]1OC(C)=O` showed an IC50 greater than 250 µM. With `CCCCCC#Cc1cn([C@@H]2O[C@H](CO)[C@@H](O)[C@H](O)[C@H]2O)c(=O)[nH]c1=O` the IC50 was 26 µM. `C[n+]1cccc(C#Cc2cn([C@@H]3O[C@H](CO)[C@@H](O)[C@H](O)[C@H]3O)c(=O)[nH]c2=O)c1` gave an IC50 greater than 250 µM. Work on `CCCc1cc2cn([C@@H]3O[C@H](CO)[C@@H](O)[C@H](O)[C@H]3O)c(=O)nc2o1` yielded an IC50 of 173 µM.
